Literature values, collected in patent publication US8217079B2 (priority 2010, dated 2012).

Test system: PVR-1 gene expression
Settings: sub-micromolar concentrations; peripheral blood of JAK2^V617F PV patients; cited from earlier work

CCN(CC)Cc1ccc2cc(COC(=O)Nc3ccc(C(=O)NO)cc3)ccc2c1.Cl [ITF2357, Diethyl-[6-(4-hydroxycarbamoyl-phenylcarbamoyloxymethyl)-naphthalen-2-ylmethyl]-ammonium chloride]
PVR-1 gene expression in granulocytes: down-modulate
